Like-named read-outs stand apart in the source and are kept apart here.
How the values were obtained:
hCB1 [1] = target: T1, hCB1 (Homo sapiens, UniProt P21554); assay: hCB1 cAMP agonist assay (HEK-293 cells); format: cell-based; details: cAMP agonist, HEK, 96-well
hCB1 [2] = target: T1, hCB1; assay: hCB1 radioligand binding assay ([3H]-CP 55,940 displacement); details: HEK membranes
From the text: (§1) cDNA expression clones for human CB 1 (hCB1, Genbank Accession No. AY225225) and human CB2 (hCB2, Genbank Accession No. AY242132) expressed in vector pcDNA3.1+ were purchased from UMR cDNA Resource Center, Rolla, Mo. (Clone ID CNR01L000 for hCB1; CNR0200000 for hCB2).
Stable, HEK-293-derived cell lines that recombinantly express hCB1 or hCB2 were established. In brief, the clone hCB1 (CNR1L) or hCB2 (CNR2) was transfected into human embryonic kidney cells (HEK-293) using Lipofectamine 2000 (Gibco, Cat#11668-019) according to the manufacturer's protocol. Transfected clones were isolated by single colony purification and clones were screened for receptor expression using a whole cell, ^3H—CP 55,940 radioligand binding assay. HEK-293 stable cells were maintained in Dulbecco's modified Eagles medium (DMEM) containing 10% fetal bovine serum, 2 mM L-glutamine and 0.5 mg/mL G-418.
(§2) Membranes were isolated from transfected cells as follows. Monolayers of cultured cells were washed twice with phosphate-buffered saline (PBS). Cells were scraped into 20 mM HEPES, pH 7.4, 10 mM EDTA containing complete cocktail protease inhibitors (Roche, Catalog #11 697 498 001), and were homogenized by an electric-powered mechanical probe homogenizer (Omni GLH; probe G7-195S) for 40 seconds at 7000 rpm. Homogenates were centrifuged 10 minutes at 1000×g at 4° C. The supernatant was collected and was centrifuged for 1 hour at 40,000×g. The supernatant was then decanted and the resulting pellet was re-suspended in 20 mM HEPES, pH 7.4, 5 mM MgCl2, 1 mM EDTA, 10% sucrose with complete cocktail protease inhibitors. Protein concentration of membrane suspensions were measured by Bradford Protein Assay using bovine serum albumin as the standard (BioRad catalog #500-0006). Protein concentrations of membrane suspensions were adjusted with the final buffer in the range of 5 to 10 mg/mL and were stored at −80° C. until further use.
Radioligand binding assays were performed by incubating membranes (2-10 μg protein) prepared from HEK-293 cells expressing recombinant human cannabinoid receptors, CB 1 or CB2, at room temperature with 0.5 nM cannabinoid receptor agonist, [^3H]-CP 55,940 (Perkin Elmer, catalog #NET 1051) in 0.2 mL of binding buffer (50 mM Tris-HCl, pH 7.5, 5 mM MgCl2, 2.5 mM EDTA) and 0.1% fatty acid free bovine serum albumin (Sigma Cat. #A0821) for 90 minutes. A rapid filtration technique using Millipore FB filter plates (Catalog #MADVNOB) and filtration apparatus (Millipore system Catalog MAVM0960R) with vacuum aspiration was used to harvest and rinse labeled membranes (8 times with 0.2 mL of chilled binding buffer). The radioactivity bound to the filters was counted with 0.05 mL of liquid scintillant (UltraGold MV, PerkinElmer catalog #6013159) in a scintillation counter (Perkin Elmer Microbeta instrument). Nonspecific binding was determined in the presence of unlabeled 1 μM CP 55,940 (Sigma Aldrich, catalog #C1112). Binding data were analyzed using GraphPad Prism (GraphPad Software, Inc. San Diego, Calif.).

hCB2 [3] = target: T2, hCB2 (Homo sapiens, UniProt P34972); assay: hCB2 radioligand binding assay ([3H]-CP 55,940 displacement); details: HEK membranes
T2 sequence (P34972 whole entry): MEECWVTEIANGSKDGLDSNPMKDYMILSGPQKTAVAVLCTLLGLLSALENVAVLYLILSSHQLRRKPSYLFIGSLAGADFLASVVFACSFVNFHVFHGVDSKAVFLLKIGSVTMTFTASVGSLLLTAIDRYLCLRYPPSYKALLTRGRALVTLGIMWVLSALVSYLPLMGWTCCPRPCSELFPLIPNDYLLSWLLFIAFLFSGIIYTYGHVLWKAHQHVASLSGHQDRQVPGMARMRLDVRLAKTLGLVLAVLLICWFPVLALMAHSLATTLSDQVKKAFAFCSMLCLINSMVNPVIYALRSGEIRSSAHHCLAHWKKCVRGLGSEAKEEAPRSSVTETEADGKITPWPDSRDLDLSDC
Protocol: as §1
as §2, with “Cells were scraped into 20 mM HEPES, pH 7.4, 10 mM EDTA containing complete cocktail protease inhibitors (Roche, Catalog #11 697 498 001), and were homogenized by an electric-powered mechanical probe homogenizer (Omni GLH; probe G7-195S) for 40 seconds at 7000 rpm.” left out
A rapid filtration technique using Millipore FB filter plates (Catalog #MADVNOB) and filtration apparatus (Millipore system Catalog MAVM0960R) with vacuum aspiration was used to harvest and rinse labeled membranes (8 times with 0.2 mL of chilled binding buffer). […] Binding data were analyzed using GraphPad Prism (GraphPad Software, Inc. San Diego, Calif.).

hCB2 [4] = target: T2, hCB2; assay: hCB2 GTPγS agonist assay (HEK-293 membranes); format: biochemical
Protocol: as §1
as §2, with “Cells were scraped into 20 mM HEPES, pH 7.4, 10 mM EDTA containing complete cocktail protease inhibitors (Roche, Catalog #11 697 498 001), and were homogenized by an electric-powered mechanical probe homogenizer (Omni GLH; probe G7-195S) for 40 seconds at 7000 rpm.” left out
^35S GTPγS binding assays were performed by incubating recombinant cell membranes prepared above (5 μg) in the presence of scintillation proximity assay beads (SPA beads, Catalog #RPNQ0252 GE Healthcare, Buckinghamshire, England) in GTPγS binding buffer [50 mM HEPES (pH 7.4), 100 mM NaCl, 5 mM MgCl2, 0.001% saponin (Sigma catalog #S4521)] supplemented with 20 uM GDP (Sigma catalog #G7127) in the presence or absence of test compound. The reaction was carried out in 96-well microplates with 0.1 nM [^35S]GTPγS (specific activity=1250 Ci/mmol; Perkin Elmer catalog #NEG030X250UC) in a final volume of 100 μL. After a 90 min room temperature incubation, the reaction was analyzed using a scintillation counter (Perkin Elmer Microbeta instrument). Binding data were analyzed using GraphPad Prism.

hCB2 [5] = target: T2, hCB2; assay: hCB2 cAMP agonist assay (HEK-293 cells); format: cell-based
Protocol: as §1
cAMP assays were performed in HEK-293 cells stably expressing human CB 1 or CB2 receptors. […] Cells suspensions were centrifuged and the cells were washed once with PBS, were centrifuged again, and the cells were resuspended in HBSS (Hank's Balanced Salt Solution, Cellgro, Cat #21-022-CV) solution containing 10 mM HEPES and 0.1% fatty acid free BSA (Sigma, Cat #A0281). Cell suspensions were prepared at 1,500,000 cells per mL. Stock solutions of test substances (10 mM) in DMSO were diluted to 1 mM using 30% DMSO as diluent. Test substances of solutions (1 mM) were further diluted down to 3× of final assay concentrations in the above HBSS buffer containing 0.1% BSA in the presence of 90 uM forskolin (Sigma Cat#F6886). To perform the assay, 20 μL of cell suspension (1,500,000 cells/mL) were added to each well in 96 well plate and treated with 10 μL test substance solution diluted as described above. Cells and compounds were incubated at 37° C. for 30 minutes. Cells were lysed and cAMP concentration was measured using DiscoveRx-XS+ cAMP assay kit (DiscoveRx Corporation Ltd., Fremont, Calif., USA, Cat #90-0075-03), following the manufacturer's protocol. GraphPad Prism software was used to calculate EC50 values using sigmoidal dose response curve fitting. The maximal amount of cAMP produced by forskolin was defined as 100%.

[6] = read-out: hCB1 IC50 (CP displ, nM, HEK)
[7] = read-out: hCB2 IC50 (CP displ, nM, HEK)
[8] = GTPγS agonist, HEK membranes, read-out: hCB2 EC50 (GTPyS ag, nM, HEK)
[9] = cAMP agonist, HEK, 96-well, read-out: hCB2 EC50 (cAMP ag, nM, HEK (96-well))

T1 sequence (P21554 whole entry): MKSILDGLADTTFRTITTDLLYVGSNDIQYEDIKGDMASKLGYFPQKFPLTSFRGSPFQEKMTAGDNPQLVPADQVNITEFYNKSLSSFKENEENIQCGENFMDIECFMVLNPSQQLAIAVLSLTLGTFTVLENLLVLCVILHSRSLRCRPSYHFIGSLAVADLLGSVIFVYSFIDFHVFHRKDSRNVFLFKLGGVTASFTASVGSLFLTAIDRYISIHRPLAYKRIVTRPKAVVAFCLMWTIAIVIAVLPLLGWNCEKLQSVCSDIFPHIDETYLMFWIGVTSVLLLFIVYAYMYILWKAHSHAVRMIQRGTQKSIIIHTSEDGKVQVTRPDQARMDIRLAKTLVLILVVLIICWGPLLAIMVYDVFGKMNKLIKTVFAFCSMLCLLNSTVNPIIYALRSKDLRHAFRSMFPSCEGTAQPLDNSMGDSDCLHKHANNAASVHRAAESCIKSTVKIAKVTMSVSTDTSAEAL

Structure (SMILES)	hCB1 EC50 (cAMP ag, nM, HEK (96-well)) (hCB1 [1])	IC50 (hCB1 [2]; [6]) [nM]	IC50 (hCB2 [3]; [7]) [nM]	IC50 (hCB1 [2]; hCB1 IC50 (CP displ, nM, HEK)) [nM]	IC50 (hCB2 [3]; hCB2 IC50 (CP displ, nM, HEK)) [nM]	EC50 (hCB2 [4]) [nM]	EC50 (hCB2 [5]) [nM]	EC50 (hCB2 [4]; [8]) [nM]	EC50 (hCB2 [5]; [9]) [nM]
CCn1c(C(=O)c2c(C)[nH]c3ccccc23)cc2ccsc21 [Compound I-38]	NS (“Not Significant,” which means less than 30% agonist activity when compared to the positive control)	> 10000	1000 to 10000	–	–	–	–	–	–
CCCn1c(C)c(C(=O)c2cc3scnc3[nH]2)c2ccccc21 [Compound I-30]	NS (“Not Significant,” which means less than 30% agonist activity when compared to the positive control)	–	–	> 10000	1000 to 10000	–	–	–	–
CCn1c(C(=O)c2c[nH]c3cnccc23)cc2ccsc21 [Compound I-40]	NS (“Not Significant,” which means less than 30% agonist activity when compared to the positive control)	> 10000	> 10000	–	–	–	–	–	–
CCCn1c(C)c(C(=O)c2cc3cc(Cl)sc3[nH]2)c2ccccc21 [Compound I-48]	–	–	–	1000 to 10000	100 to 1000	100 to 1000	100 to 1000	–	–
Cc1c(C(=O)c2cc3ccsc3[nH]2)c2ccccc2n1CCN1CCOCC1 [Compound I-82]	–	–	–	1000 to 10000	100 to 1000	100 to 1000	100 to 1000	–	–
CCCn1c(C(=O)c2c[nH]c3ccncc23)cc2ccsc21 [Compound I-44]	NS (“Not Significant,” which means less than 30% agonist activity when compared to the positive control)	> 10000	> 10000	–	–	–	–	–	–
CCCn1c(C)c(C(=O)c2cc3ccsc3n2CC)c2c1CCC(C)(C)C2 [Compound I-65]	–	–	–	1000 to 10000	< 100	–	–	< 100	< 100
CCCn1c(C(=O)c2c[nH]c3ccccc23)cc2ccsc21 [Compound I-64]	–	–	–	> 10000	100 to 1000	–	–	100 to 1000	100 to 1000
CCCn1c(C)c(C(=O)c2cc3ccsc3n2CCC)c2c1CCC(C)(C)C2 [Compound I-35]	–	–	–	100 to 1000	< 100	–	–	< 100	< 100
CCn1c(C(=O)c2c[nH]c3ccncc23)cc2ccsc21 [Compound I-39]	NS (“Not Significant,” which means less than 30% agonist activity when compared to the positive control)	> 10000	> 10000	–	–	–	–	–	–
CCCn1c(C)c(C(=O)c2cc3ccsc3n2CC)c2ccccc21 [Compound I-54]	–	–	–	1000 to 10000	< 100	< 100	< 100	–	–
CCCn1c(C)c(C(=O)c2cc3ccsc3n2CC)c2c1CCCC2 [Compound I-85]	–	–	–	1000 to 10000	< 100	< 100	< 100	–	–
CCCn1c(C)c(C(=O)c2cc3sccc3s2)c2ccccc21 [Compound I-20]	–	–	–	1000 to 10000	1000 to 10000	100 to 1000	100 to 1000	–	–
CCCn1c(C)c(C(=O)c2cc3ccsc3n2CC)c2c1CCCCC2 [Compound I-87]	–	–	–	1000 to 10000	< 100	–	–	< 100	< 100
CCCn1c(C(=O)c2c3c(n(CCN4CCOCC4)c2C)CCCC3)cc2ccsc21 [Compound I-79]	–	–	–	100 to 1000	< 100	–	–	< 100	< 100
CCCn1c(C(=O)c2c(C)n(CCN3CCCCC3)c3ccccc23)cc2ccsc21 [Compound I-59]	–	–	–	100 to 1000	< 100	100 to 1000	< 100	–	–
CCn1c(C(=O)c2c[nH]c3ccccc23)cc2ccsc21 [Compound I-37]	–	–	–	> 10000	100 to 1000	–	–	100 to 1000	< 100
CCCn1c(C)c(C(=O)c2cc3ccsc3n2C)c2ccccc21 [Compound I-55]	–	–	–	> 10000	100 to 1000	100 to 1000	< 100	–	–
CCCn1c(C)c(C(=O)c2cc3ccsc3s2)c2ccccc21 [Compound I-46]	–	–	–	1000 to 10000	100 to 1000	100 to 1000	100 to 1000	–	–

— patent US20130178453A1, “Cannabinoid Agonists” (priority 2010, published 2013)
